Laboratory results as given in the SangsterLogP compilation.

Assay: method code SF-GLC,AS, from DOI: 10.1021/jf60192a013, PMID: 4840568

Compound	logP
COP(=O)(NCC(C)C)SC (configuration not stated)	0.97
CCOP(N)(=O)SCC (configuration not stated)	0.15
CCCOP(N)(=O)SCCC (configuration not stated)	1.23
CNP(=O)(OC)SC (configuration not stated)	-0.07
CCCCCCNP(=O)(OC)SC (configuration not stated)	1.11
COP(N)(=O)SC (configuration not stated)	-0.66
COP(=O)(NC(C)(C)C)SC (configuration not stated)	0.96
CCNP(=O)(OC)SC (configuration not stated)	0.07
CCCCNP(=O)(OC)SC (configuration not stated)	0.94
CCCCCCCCNP(=O)(OC)SC (configuration not stated)	1.51
CCCNP(=O)(OC)SC (configuration not stated)	0.65
CCC(C)NP(=O)(OC)SC (configuration not stated)	0.95
